From PMC9618103, “Exploratory toxicology studies of 2,3-substituted imidazo[1,2-a]pyridines with antiparasitic and anti-inflammatory properties” (Toxicology Research, 2022)

Experiments:
NIH mice = assay: Acute oral toxicity, median lethal dose (LD50); format: in vivo; conditions: for Category (GHS acute oral toxicity hazard category) / Hazard statement (GHS): based on oral LD50, according to GHS [39]; for Oral LD50: female NIH mice, single oral dose, 14 days observation
Procedure: All treatments were administrated orally (p.o.) according to the scheme mentioned below.
Acute toxicity tests were performed in order to measure the median lethal dose (LD50). After acclimatization, mice were randomly allocated to ten groups (n = 4), including the control group (e.g. water, Tween 80, or PO) and the experimental groups, each with a single dose of one of the IMPYs at 4 levels of dose (0.5, 1.0, 2.0, and 4.0 g/kg b.w.).
Animals were food deprived overnight prior to administration of the chemical compounds or vehicles, and food was returned 4 h after dosing. Animals had access to water ad libitum throughout the study.[27]^,[28]

Wistar rats [1] = assay: Subacute toxicity: serum alanine aminotransferase and alkaline phosphatase activity; format: in vivo; conditions: serum; rats, p.o., 14 days at 10% of LD50 (CCl4, APAP: once daily, 3 days); mean ± SEM, n = 6
Wistar rats [2] = assay: Hepatic and renal lipid peroxidation (lipid-soluble fluorescence); format: in vivo; conditions: rats, p.o., 14 days at 10% of LD50 (CCl4, APAP: once daily, 3 days), mean ± SEM, n = 6; for Renal Lipoperoxidation: kidney; for Hepatic Lipoperoxidation: liver
Wistar rats [3] = assay: Subacute toxicity: glomerular filtration rate (creatinine clearance) and serum creatinine; format: in vivo; conditions: for Glomerular Filtration Rate / Serum Creatinine: rats, p.o., 14 days at 10% of LD50 (CCl4, APAP: once daily, 3 days), mean ± SEM, n = 6
[4] = system: renal secretory pathway of organic anions; assay: Active tubular secretion of organic acids (PAH uptake in kidney cortex slices); format: in vivo, rats; conditions: for PAH t/m ratio: kidney cortex slices, PAH 1 mM, 1 h, 25 °C, rats, p.o., 14 days at 10% of LD50 (CCl4, APAP: once daily, 3 days), mean ± SEM, n = 6
Wistar rats [5] = assay: Subacute toxicity: serum and urine glucose, urinary protein excretion; format: in vivo; conditions: for Filtered Load of Glucose / Fractional Excretion of Glucose / Serum Glucose / Urinary Glucose Excretion / Urinary Protein Excretion: rats, p.o., 14 days at 10% of LD50 (CCl4, APAP: once daily, 3 days), mean ± SEM, n = 6
Wistar rats [6] = assay: Subacute toxicity: water and electrolyte balance (osmolality, sodium, potassium, urinary flow); format: in vivo; conditions: for Filtered Load of Potassium / Filtered Load of Sodium / Fractional Excretion of Potassium / Fractional Excretion of Sodium / Serum Osmolality / Serum Potassium / Serum Sodium / U/S Osm ratio / Urinary Flow Rate / Urinary Potassium Excretion / Urinary Sodium Excretion: rats, p.o., 14 days at 10% of LD50 (CCl4, APAP: once daily, 3 days), mean ± SEM, n = 6
Wistar rats [7] = assay: Hepatic and renal reactive oxygen species (DCF formation); format: in vivo; conditions: rats, p.o., 14 days at 10% of LD50 (CCl4, APAP: once daily, 3 days), mean ± SEM, n = 6; for Renal ROS: kidney; for Hepatic ROS: liver

| Compound | Category (GHS acute oral toxicity hazard category) (NIH mice) | Hazard statement (GHS) (NIH mice) | Oral LD50 (NIH mice) [g/kg b.w.] | Alanine Aminotransferase (Wistar rats [1]) [U/L] | Alkaline Phosphatase (Wistar rats [1]) [U/L] | Renal Lipoperoxidation (Wistar rats [2]) [URF/mg protein] | Hepatic Lipoperoxidation (Wistar rats [2]) [URF/mg protein] | Glomerular Filtration Rate (Wistar rats [3]) [mL/min] | Serum Creatinine (Wistar rats [3]) [mg/dL] | PAH t/m ratio [4] | Filtered Load of Glucose (Wistar rats [5]) [mg/min] | Fractional Excretion of Glucose (Wistar rats [5]) [%] | Serum Glucose (Wistar rats [5]) [mg/dL] | Urinary Glucose Excretion (Wistar rats [5]) [ng/min] | Urinary Protein Excretion (Wistar rats [5]) [µg/min] | Filtered Load of Potassium (Wistar rats [6]) [µEq/min] | Filtered Load of Sodium (Wistar rats [6]) [µEq/min] | Fractional Excretion of Potassium (Wistar rats [6]) [%] | Fractional Excretion of Sodium (Wistar rats [6]) [%] | Serum Osmolality (Wistar rats [6]) [mOsm/kg] | other results |
| --- | --- | --- | --- | --- | --- | --- | --- | --- | --- | --- | --- | --- | --- | --- | --- | --- | --- | --- | --- | --- | --- |
| O=C(O)c1cn2ccccc2n1 [Compound 3a, imidazo[1,2-a]pyridine-2-carboxylic acid] | 5 | May be harmful if swallowed | > 2.000 | 25.62 ± 1.27 | 93.76 ± 13.08 | 0.29 ± 0.03 | 0.79 ± 0.03 | 0.28 ± 0.04 | 1.05 ± 0.05 | 2.25 ± 0.10 | 0.22 ± 0.03 | 0.05 ± 0.01 | 80.56 ± 2.31 | 92.91 ± 12.35 | 0.69 ± 0.14 | 1.98 ± 0.44 | 40.07 ± 7.62 | 27.89 ± 6.73 | 0.53 ± 0.16 | 304.73 ± 1.82 | GFR, change in words (Wistar rats [3]; in comparison to the control group): lower; FEG (fractional excretion of glucose), change in words (Wistar rats [5]; compared to control values): increased; FLG (filtered load of glucose), change in words (Wistar rats [5]; compared to control values): reduced; osmolar clearance, change in words (Wistar rats [6]; compared to the control group): lower; freewater clearance, change in words (Wistar rats [6]; compared to the control group, significant by PLS VIP and ANOVA): greater; FLS (filtered load of sodium), change in words (Wistar rats [6]; in comparison with the control group): decreased; Serum Potassium (Wistar rats [6]): 6.83 ± 0.54 mEq/L; Serum Sodium (Wistar rats [6]): 148.12 ± 3.02 mEq/L; U/S Osm ratio (Wistar rats [6]): 3.18 ± 0.61; Urinary Flow Rate (Wistar rats [6]): 2.20 ± 0.50 µL/min; Urinary Potassium Excretion (Wistar rats [6]): 0.50 ± 0.12 µEq/min; Urinary Sodium Excretion (Wistar rats [6]): 0.17 ± 0.05 µEq/min; Renal ROS (Wistar rats [7]): 159.65 ± 14.96 nM de DCF/mg protein/h; Hepatic ROS (Wistar rats [7]): 349.63 ± 18.87 nM de DCF/mg protein/h |
| N#Cc1cn2ccccc2n1 [Compound 2a, imidazo[1,2-a]pyridine-2-carbonitrile] | 4 | Harmful if swallowed | 0.794 | 42.68 ± 2.04 | 104.44 ± 19.76 | 0.30 ± 0.02 | 0.71 ± 0.04 | 0.86 ± 0.28 | 0.66 ± 0.13 | 1.07 ± 0.11 | 0.90 ± 0.29 | 0.02 ± 3.9E-3 | 103.46 ± 3.16 | 136.89 ± 32.82 | 0.65 ± 0.13 | 5.07 ± 1.44 | 124.49 ± 40.90 | 13.55 ± 1.23 | 0.55 ± 0.13 | 291.74 ± 1.34 | PAH t/m ratio, change in words ([4]; versus control (2a also versus Tween 80 and 2b)): decreased; Serum Potassium (Wistar rats [6]): 6.03 ± 0.31 mEq/L; Serum Sodium (Wistar rats [6]): 142.94 ± 3.88 mEq/L; U/S Osm ratio (Wistar rats [6]): 3.30 ± 0.22; Urinary Flow Rate (Wistar rats [6]): 6.44 ± 1.39 µL/min; Urinary Potassium Excretion (Wistar rats [6]): 0.64 ± 0.16 µEq/min; Urinary Sodium Excretion (Wistar rats [6]): 0.51 ± 0.09 µEq/min; Renal ROS (Wistar rats [7]): 171.33 ± 22.04 nM de DCF/mg protein/h; Hepatic ROS (Wistar rats [7]): 285.53 ± 42.87 nM de DCF/mg protein/h |
